Data set [1] can be described thus: solid form stability at high relative humidity and in aqueous suspension. Type of data set: physicochemical. The source says: Salts of 1-(indole-6-carbonyl-D-phenylglycinyl)-4-(1-methylpiperidin-4-yl)piperazine that form crystalline solids are disclosed in Examples 48a (hydrochloride salt) and 48b (difumarate salt) of WO 01/96323. […] Thus, the form disclosed in WO 02/100847 as Form 1 is obtained as thin needles. The thin needle morphology has disadvantages for formulation, however, because of, inter alia, clustering and low bulk density. […] The form disclosed in WO 02/100847 as Form 2 has the disadvantage, inter alia, that the particle size is very small, resulting in extremely slow filtration.

For another data set, the target named is Factor Xa (Homo sapiens, UniProt P00742). The note with it: as disclosed in WO 00/76971; cited from earlier work.
Factor Xa, sequence (P00742 235-488 limits assumed): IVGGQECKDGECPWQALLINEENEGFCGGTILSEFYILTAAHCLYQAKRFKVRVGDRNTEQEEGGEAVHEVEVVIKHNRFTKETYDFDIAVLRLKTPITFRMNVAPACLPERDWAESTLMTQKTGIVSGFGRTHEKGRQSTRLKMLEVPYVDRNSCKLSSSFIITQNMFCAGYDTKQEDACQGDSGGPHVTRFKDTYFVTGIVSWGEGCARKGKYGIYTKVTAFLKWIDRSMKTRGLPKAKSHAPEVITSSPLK
Factor Xa, sequence (P00742 41-179 partner limits assumed): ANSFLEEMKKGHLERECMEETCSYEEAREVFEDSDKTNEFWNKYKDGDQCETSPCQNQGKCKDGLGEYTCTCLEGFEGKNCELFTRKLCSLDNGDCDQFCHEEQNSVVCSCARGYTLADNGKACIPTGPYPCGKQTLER
Data set [2] in a line: moisture sorption isotherm (vacuum microbalance). Type of data set: physicochemical. The note with it: ambient temperature, once the dihydrate had been formed. The protocol:
A moisture sorption isotherm of the D-tartrate crystals was also determined using a vacuum microbalance, with a 40° C. drying step prior to initial data collection. With the initial drying step, an initial 6% weight loss was observed, consistent with the removal of the waters of crystallization. As the relative humidity was increased, the sample resorbed water, with rehydration being completed when the relative humidity reached about 20%.

The nature of another data set: equilibrium solubility. Type of data set: physicochemical. The following applies: thermodynamic from solid, 25° C., measured as the free base.

Structures are written as SMILES. Where two headings read alike, the source gives them in different places.

In the case of `CN1CCC(N2CCN(C(=O)[C@H](NC(=O)c3ccc4cc[nH]c4c3)c3ccccc3)CC2)CC1.O=C(O)/C=C/C(=O)O.O=C(O)/C=C/C(=O)O` [Form 1], the “form conversion under extremely high relative humidity” value in data set [1] (above 80% relative humidity) is recorded as “convert to a different (higher) hydrate”. In addition, in data set [1] (aqueous suspensions), the “form conversion in aqueous suspensions” value is listed as “convert into the form disclosed in WO 02/100847 as Form 2”.

Consider `CN1CCC(N2CCN(C(=O)[C@H](NC(=O)c3ccc4cc[nH]c4c3)c3ccccc3)CC2)CC1` [1-(indole-6-carbonyl-D-phenylglycinyl)-4-(1-methylpiperidin-4-yl)-piperazine], for which the “inhibition of Factor Xa” value at Factor Xa was “potent and selective inhibitor of Factor Xa”.

Take `CN1CCC(N2CCN(C(=O)[C@H](NC(=O)c3ccc4cc[nH]c4c3)c3ccccc3)CC2)CC1.O.O.O=C(O)C(O)C(O)C(=O)O` [D-tartrate crystals, 1-(Indole-6-carbonyl-D-phenylglycinyl)-4-(1-methylpiperidin-4-yl)piperazine D-Tartrate Dihydrate]: the “stability of the dihydrate to relative humidity” value in data set [2] was “remained stable between 5 and 95% relative humidity”. The solubility thermodynamic in “equilibrium solubility” (simulated gastric fluid, 0.01 M HCl, read-out: equilibrium solubility in 0.01 M HCl) was at least 125 mg/mL; in “equilibrium solubility” (water, read-out: equilibrium solubility in water), at least 126 mg/mL.

These data come from patent US20070249623A1, “1-(Indole-6-Carbonyl-D-Phenylglycinyl)-4-(1-Methylpiperidin-4-Yl)Piperazine D-Tartrate” (Eli Lilly and Company Patent Division, priority 2004, published 2007).
